The source of these data is patent publication US5576319A, “Pyrrolo-pyridine derivatives” (Merck, Sharp & Dohme Ltd., priority 1994, dated 1996).

Structures are written as SMILES. pKi: −log10 of the molar value. Like-named read-outs stand apart in the source and are kept apart here.

Data set [1] addresses T1, human dopamine D4 receptor subtype (Homo sapiens, UniProt P21917).
T1 sequence (P21917 1-419): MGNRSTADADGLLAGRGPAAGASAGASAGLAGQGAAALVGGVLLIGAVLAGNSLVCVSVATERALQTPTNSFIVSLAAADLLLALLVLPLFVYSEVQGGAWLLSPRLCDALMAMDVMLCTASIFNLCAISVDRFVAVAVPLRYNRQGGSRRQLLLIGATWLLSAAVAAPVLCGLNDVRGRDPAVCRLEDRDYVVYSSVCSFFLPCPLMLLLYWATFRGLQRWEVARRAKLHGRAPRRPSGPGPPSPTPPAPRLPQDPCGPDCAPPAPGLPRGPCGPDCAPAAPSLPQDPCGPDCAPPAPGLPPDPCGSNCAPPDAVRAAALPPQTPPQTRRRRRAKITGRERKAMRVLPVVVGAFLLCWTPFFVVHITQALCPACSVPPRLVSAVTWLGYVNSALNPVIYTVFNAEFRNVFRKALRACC
Put plainly: [3H]-Spiperone binding, displacement from human dopamine D4 receptor subtype expressed in clonal cell lines.

Data set [2] deals with T2, human dopamine D2 receptor subtype (Homo sapiens, UniProt P14416).
T2 construct: expressed in transfected cells
T2 sequence (P14416 whole entry): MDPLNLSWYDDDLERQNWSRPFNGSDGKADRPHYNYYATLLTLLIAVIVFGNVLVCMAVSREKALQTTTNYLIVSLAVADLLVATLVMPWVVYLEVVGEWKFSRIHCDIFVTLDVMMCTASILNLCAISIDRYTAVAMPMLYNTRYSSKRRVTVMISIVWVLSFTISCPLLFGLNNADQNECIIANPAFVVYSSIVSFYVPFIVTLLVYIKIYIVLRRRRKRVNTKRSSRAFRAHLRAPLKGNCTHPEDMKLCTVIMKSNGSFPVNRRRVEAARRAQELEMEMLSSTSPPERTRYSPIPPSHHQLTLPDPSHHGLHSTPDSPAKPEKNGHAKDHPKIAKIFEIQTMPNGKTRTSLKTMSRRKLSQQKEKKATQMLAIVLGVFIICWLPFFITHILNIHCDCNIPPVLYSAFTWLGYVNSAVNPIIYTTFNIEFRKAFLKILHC
The data set can be described thus: [3H]-Spiperone binding, displacement from human dopamine D2 receptor subtype expressed in clonal cell lines.

A further data set deals with rats. Put plainly: Sedation: spontaneous motor activity of rats in novel cages with photocells (number of cage crossings). The following applies: rat. The format is in vivo. The source says: Representative compounds according to the invention have been tested for their effects on spontaneous motor activity occasioned by placing rats in novel cages equipped with photocells in order to determine the number of cage crossings. This is an art-recognised model of the sedation potential of a given test compound.

For the next data set, the system named is rat. Put plainly: Extrapyramidal disorders: apomorphine-induced stereotypy in the rat. The format is in vivo. The source says:
2. Extrapyramidal Disorders
Representative compounds according to the invention have been tested for their effect on apomorphine-induced stereotypy in the rat. This is an art-recognised model of the potential to induce extrapyramidal side-effects.

Broadly, the pKi is the negative decadic logarithm of the Ki, by convention in mol/L. As to `COc1ccc(N2CCN(Cc3c[nH]c4ncccc34)CC2)cc1` [Example 2, 3-(4-[4-Methoxyphenyl]piperazin-1-yl)methyl-1H-pyrrolo[2,3-b]pyridine], the negative-log Ki (pKi) in data set [1] (human D4, clonal cell line membranes, 0.2 nM [3H]-spiperone) was 8.89; in data set [2] (human D2, clonal cell line membranes, 0.2 nM [3H]-spiperone, read-out: Ki value for the D2 subtype), below 5.82. Further, the “D4 :D2 ratio” value in data set [1] (ratio of Ki values, selectivity for D4 over D2, 60 min) was “greater than 1150”.

`Clc1ccc(N2CCN(Cc3c[nH]c4ncccc34)CC2)cc1` [Example 5, 3-(4-[4-Chlorophenyl]piperazin-1-yl)methyl-1H-pyrrolo[2,3-b]pyridine]: in the data set on rats (doses of up to 10-30 mg/kg), the “sedation (spontaneous motor activity)” value is “no evidence for sedation”. In the data set with rat (doses up to 1.0 mg/kg), the “potential to induce extrapyramidal side-effects (apomorphine-induced stereotypy)” value is given as “no potential to induce the extrapyramidal side-effects”. The same molecule showed a pKi in data set [2] of 6.07.

On to `O=C(CCCN1CCC(O)(c2ccc(Cl)cc2)CC1)c1ccc(F)cc1` [haloperidol, reference compound], for which the “sedation (spontaneous motor activity)” value with rats (dose of 1 mg/kg) is reported as “marked sedation”. For the same molecule, the “potential to elicit extrapyramidal side-effects (apomorphine-induced stereotypy)” value with rat (doses of 0.5 and 1.0 mg/kg) is reported as “significant potential to elicit extrapyramidal side-effects”.
